{"source": "ChEMBL document CHEMBL3045463", "about": "“Cross-resistance study and biochemical mechanisms of thiamethoxam resistance in B-biotype Bemisia tabaci (Hemiptera: Aleyrodidae)” (2010)", "format_in_all_cases": "functional", "key": {"[1]": {"system": "Bemisia tabaci", "assay": "Cross resistant, ratio of LC50 for B-biotype thiamethoxam-resistant Bemisia tabaci (sweet potato whitefly) to LC50 for B-biotype thiamethoxam-sensitive Bemisia tabaci (sweet potato whitefly)"}, "[2]": {"system": "Bemisia tabaci", "assay": "Insecticidal activity against B-biotype thiamethoxam-resistant Bemisia tabaci (sweet potato whitefly) in cabbage leaf assessed as mortality after 48 hr by leaf disk assay", "settings": "foliar"}, "[3]": {"system": "Bemisia tabaci", "assay": "Insecticidal activity against B-biotype thiamethoxam-sensitive Bemisia tabaci (sweet potato whitefly) in cabbage leaf assessed as mortality after 48 hr by leaf disk assay", "settings": "foliar"}, "[4]": {"system": "Bemisia tabaci", "assay": "Synergism ratio, Ratio of LC50 for B-biotype thiamethoxam-resistant Bemisia tabaci (sweet potato whitefly) to LC50 for B-biotype thiamethoxam-resistant Bemisia tabaci (sweet potato whitefly) in presence of diethylmaleate"}, "[5]": {"system": "Bemisia tabaci", "assay": "Synergism ratio, Ratio of LC50 for B-biotype thiamethoxam-resistant Bemisia tabaci (sweet potato whitefly) to LC50 for B-biotype thiamethoxam-resistant Bemisia tabaci (sweet potato whitefly) in presence of triphenyl phosphate"}, "[6]": {"system": "Bemisia tabaci", "assay": "Synergism ratio, Ratio of LC50 for B-biotype thiamethoxam-resistant Bemisia tabaci (sweet potato whitefly) to LC50 for B-biotype thiamethoxam-resistant Bemisia tabaci (sweet potato whitefly) in presence of piperonyl butoxide"}, "[7]": {"system": "Bemisia tabaci", "assay": "Synergism ratio, Ratio of LC50 for B-biotype thiamethoxam-sensitive Bemisia tabaci (sweet potato whitefly) to LC50 for B-biotype thiamethoxam-sensitive Bemisia tabaci (sweet potato whitefly) in presence of diethylmaleate"}, "[8]": {"system": "Bemisia tabaci", "assay": "Synergism ratio, Ratio of LC50 for B-biotype thiamethoxam-sensitive Bemisia tabaci (sweet potato whitefly) to LC50 for B-biotype thiamethoxam-sensitive Bemisia tabaci (sweet potato whitefly) in presence of triphenyl phosphate"}, "[9]": {"system": "Bemisia tabaci", "assay": "Synergism ratio, Ratio of LC50 for B-biotype thiamethoxam-sensitive Bemisia tabaci (sweet potato whitefly) to LC50 for B-biotype thiamethoxam-sensitive Bemisia tabaci (sweet potato whitefly) in presence of piperonyl butoxide"}, "[10]": {"system": "Bemisia tabaci", "assay": "Insecticidal activity against B-biotype thiamethoxam-resistant Bemisia tabaci (sweet potato whitefly) in cabbage leaf assessed as mortality after 48 hr by leaf disk assay in presence of diethylmaleate", "settings": "foliar"}, "[11]": {"system": "Bemisia tabaci", "assay": "Insecticidal activity against B-biotype thiamethoxam-resistant Bemisia tabaci (sweet potato whitefly) in cabbage leaf assessed as mortality after 48 hr by leaf disk assay in presence of triphenyl phosphate", "settings": "foliar"}, "[12]": {"system": "Bemisia tabaci", "assay": "Insecticidal activity against B-biotype thiamethoxam-resistant Bemisia tabaci (sweet potato whitefly) in cabbage leaf assessed as mortality after 48 hr by leaf disk assay in presence of piperonyl butoxide", "settings": "foliar"}, "[13]": {"system": "Bemisia tabaci", "assay": "Insecticidal activity against B-biotype thiamethoxam-sensitive Bemisia tabaci (sweet potato whitefly) in cabbage leaf assessed as mortality after 48 hr by leaf disk assay in presence of diethylmaleate", "settings": "foliar"}, "[14]": {"system": "Bemisia tabaci", "assay": "Insecticidal activity against B-biotype thiamethoxam-sensitive Bemisia tabaci (sweet potato whitefly) in cabbage leaf assessed as mortality after 48 hr by leaf disk assay in presence of triphenyl phosphate", "settings": "foliar"}, "[15]": {"system": "Bemisia tabaci", "assay": "Insecticidal activity against B-biotype thiamethoxam-sensitive Bemisia tabaci (sweet potato whitefly) in cabbage leaf assessed as mortality after 48 hr by leaf disk assay in presence of piperonyl butoxide", "settings": "foliar"}, "[16]": {"system": "Bemisia tabaci", "assay": "Resistant ratio, ratio of LC50 for T33 generation of B-biotype Bemisia tabaci (sweet potato whitefly) to LC50 for B-biotype Bemisia tabaci (sweet potato whitefly)"}, "[17]": {"system": "Bemisia tabaci", "assay": "Resistant ratio, ratio of LC50 for T30 generation of B-biotype Bemisia tabaci (sweet potato whitefly) to LC50 for B-biotype Bemisia tabaci (sweet potato whitefly)"}, "[18]": {"system": "Bemisia tabaci", "assay": "Insecticidal activity against B-biotype Bemisia tabaci (sweet potato whitefly) in cabbage leaf assessed as mortality after 48 hr by leaf disk assay", "settings": "foliar"}, "[19]": {"system": "Bemisia tabaci", "assay": "Insecticidal activity against T17 generation of B-biotype Bemisia tabaci (sweet potato whitefly) in cabbage leaf assessed as mortality after 48 hr by leaf disk assay", "settings": "foliar"}, "[20]": {"system": "Bemisia tabaci", "assay": "Insecticidal activity against T28 generation of B-biotype Bemisia tabaci (sweet potato whitefly) in cabbage leaf assessed as mortality after 48 hr by leaf disk assay", "settings": "foliar"}, "[21]": {"system": "Bemisia tabaci", "assay": "Insecticidal activity against T30 generation of B-biotype Bemisia tabaci (sweet potato whitefly) in cabbage leaf assessed as mortality after 48 hr by leaf disk assay", "settings": "foliar"}, "[22]": {"system": "Bemisia tabaci", "assay": "Insecticidal activity against T33 generation of B-biotype Bemisia tabaci (sweet potato whitefly) in cabbage leaf assessed as mortality after 48 hr by leaf disk assay", "settings": "foliar"}, "[23]": {"system": "Bemisia tabaci", "assay": "Resistant ratio, ratio of LC50 for T17 generation of B-biotype Bemisia tabaci (sweet potato whitefly) to LC50 for B-biotype Bemisia tabaci (sweet potato whitefly)"}, "[24]": {"system": "Bemisia tabaci", "assay": "Resistant ratio, ratio of LC50 for T28 generation of B-biotype Bemisia tabaci (sweet potato whitefly) to LC50 for B-biotype Bemisia tabaci (sweet potato whitefly)"}}, "data": [{"smiles": "CC[C@H](C)[C@H]1O[C@]2(C=C[C@@H]1C)C[C@@H]1C[C@@H](C/C=C(\\C)[C@@H](O[C@H]3C[C@H](OC)[C@@H](O[C@H]4C[C@H](OC)[C@@H](O)[C@H](C)O4)[C@H](C)O3)[C@@H](C)/C=C/C=C3\\CO[C@@H]4[C@H](O)C(C)=C[C@@H](C(=O)O1)[C@]34O)O2.CO[C@H]1C[C@H](O[C@H]2[C@H](C)O[C@@H](O[C@@H]3/C(C)=C/C[C@@H]4C[C@@H](C[C@]5(C=C[C@H](C)[C@@H](C(C)C)O5)O4)OC(=O)[C@@H]4C=C(C)[C@@H](O)[C@H]5OC/C(=C\\C=C\\[C@@H]3C)[C@]54O)C[C@@H]2OC)O[C@@H](C)[C@@H]1O", "note": "[ABAMECTIN]", "values": [{"measurement": "RatioLC50", "setting": "[1]", "result": 5.33}, {"measurement": "LC50", "setting": "[2]", "result": 0.64, "unit": "µg/mL"}, {"measurement": "LC50", "setting": "[3]", "result": 0.12, "unit": "µg/mL"}]}, {"smiles": "C/C(=N\\C#N)N(C)Cc1ccc(Cl)nc1", "note": "[ACETAMIPRID]", "values": [{"measurement": "RatioLC50", "setting": "[1]", "result": 35.8}, {"measurement": "LC50", "setting": "[2]", "result": 70.9, "unit": "µg/mL"}, {"measurement": "LC50", "setting": "[3]", "result": 1.98, "unit": "µg/mL"}]}, {"smiles": "CCCCN(CCCC)SN(C)C(=O)Oc1cccc2c1OC(C)(C)C2", "note": "[CARBOSULFAN]", "values": [{"measurement": "RatioLC50", "setting": "[1]", "result": 4.43}, {"measurement": "LC50", "setting": "[2]", "result": 1960, "unit": "µg/mL"}, {"measurement": "LC50", "setting": "[3]", "result": 441, "unit": "µg/mL"}]}, {"smiles": "CCOP(=S)(OCC)Oc1nc(Cl)c(Cl)cc1Cl", "note": "[CHLORPYRIFOS]", "values": [{"measurement": "RatioLC50", "setting": "[1]", "result": 1.03}, {"measurement": "LC50", "setting": "[2]", "result": 621, "unit": "µg/mL"}, {"measurement": "LC50", "setting": "[3]", "result": 601, "unit": "µg/mL"}]}, {"smiles": "CC1(C)[C@H](C(=O)O[C@H](C#N)c2cccc(Oc3ccccc3)c2)[C@@H]1C=C(Br)Br", "note": "[DELTAMETHRIN]", "values": [{"measurement": "RatioLC50", "setting": "[1]", "result": 1.16}, {"measurement": "LC50", "setting": "[2]", "result": 810, "unit": "µg/mL"}, {"measurement": "LC50", "setting": "[3]", "result": 701, "unit": "µg/mL"}]}, {"smiles": "N#Cc1nn(-c2c(Cl)cc(C(F)(F)F)cc2Cl)c(N)c1[S+]([O-])C(F)(F)F", "note": "(stereo not drawn) [FIPRONIL]", "values": [{"measurement": "RatioLC50", "setting": "[1]", "result": 1.08}, {"measurement": "LC50", "setting": "[2]", "result": 4.45, "unit": "µg/mL"}, {"measurement": "LC50", "setting": "[3]", "result": 4.11, "unit": "µg/mL"}]}, {"smiles": "O=[N+]([O-])/N=C1\\NCCN1Cc1ccc(Cl)nc1", "note": "[IMIDACLOPRID]", "values": [{"measurement": "RatioLC50", "setting": "[1]", "result": 47.3}, {"measurement": "LC50", "setting": "[2]", "result": 412, "unit": "µg/mL"}, {"measurement": "LC50", "setting": "[3]", "result": 8.72, "unit": "µg/mL"}]}, {"smiles": "CCN(Cc1ccc(Cl)nc1)/C(=C/[N+](=O)[O-])NC", "note": "[NITENPYRAM]", "values": [{"measurement": "RatioLC50", "setting": "[1]", "result": 9.99}, {"measurement": "LC50", "setting": "[2]", "result": 22.2, "unit": "µg/mL"}, {"measurement": "LC50", "setting": "[3]", "result": 2.22, "unit": "µg/mL"}]}, {"smiles": "CN1COCN(Cc2cnc(Cl)s2)/C1=N\\[N+](=O)[O-]", "note": "[THIAMETHOXAM]", "values": [{"measurement": "RatioLC50", "setting": "[4]", "result": 0.99}, {"measurement": "RatioLC50", "setting": "[5]", "result": 2.37}, {"measurement": "RatioLC50", "setting": "[6]", "result": 3.14}, {"measurement": "RatioLC50", "setting": "[7]", "result": 0.95}, {"measurement": "RatioLC50", "setting": "[8]", "result": 1}, {"measurement": "RatioLC50", "setting": "[9]", "result": 1.17}, {"measurement": "LC50", "setting": "[10]", "result": 452, "unit": "µg/mL"}, {"measurement": "LC50", "setting": "[11]", "result": 189, "unit": "µg/mL"}, {"measurement": "LC50", "setting": "[12]", "result": 143, "unit": "µg/mL"}, {"measurement": "LC50", "setting": "[13]", "result": 18.5, "unit": "µg/mL"}, {"measurement": "LC50", "setting": "[14]", "result": 17.6, "unit": "µg/mL"}, {"measurement": "LC50", "setting": "[15]", "result": 15, "unit": "µg/mL"}, {"measurement": "RatioLC50", "setting": "[1]", "result": 25.6}, {"measurement": "LC50", "setting": "[2]", "result": 450, "unit": "µg/mL"}, {"measurement": "LC50", "setting": "[3]", "result": 17.6, "unit": "µg/mL"}, {"measurement": "RatioLC50", "setting": "[16]", "result": 66.3}, {"measurement": "RatioLC50", "setting": "[17]", "result": 25.6}, {"measurement": "LC50", "setting": "[18]", "result": 17.6, "unit": "µg/mL"}, {"measurement": "LC50", "setting": "[19]", "result": 169, "unit": "µg/mL"}, {"measurement": "LC50", "setting": "[20]", "result": 334, "unit": "µg/mL"}, {"measurement": "LC50", "setting": "[21]", "result": 451, "unit": "µg/mL"}, {"measurement": "LC50", "setting": "[22]", "result": 1160, "unit": "µg/mL"}, {"measurement": "RatioLC50", "setting": "[23]", "result": 9.62}, {"measurement": "RatioLC50", "setting": "[24]", "result": 19}]}]}
